Where two headings read alike, the source gives them in different places.
What was measured:
[1] = test system: Epstein-Barr virus early antigen (EBV-EA) activation; design: method as in PMID 9247600, PMID 22140296; settings: known antitumour promoter; read-out: IC50, inhibition of EBV activation; cited from earlier work
[2] = test system: Epstein-Barr virus early antigen (EBV-EA) activation; assay: In vitro antitumour-promoting assay: inhibition of EBV early antigen activation in Raji cells; format: cell-based; settings: for IC50: human gammaherpesvirus 4, Raji cells, 3 mM sodium n-butyrate + 50 nM PMA, 48 h
Method: The inhibition of Epstein-Barr virus (EBV) activation was used to evaluate in vitro antitumour-promoting activity. Raji cells were incubated for 48 h at 37°C under 5% CO2 in 1 mL (~5 × 10^5 cells) of RPMI-1640 medium containing 3 mM sodium n-butyrate ([…] Tesque, Japan), 50 nM phorbol 12-myristate 13-acetate (PMA) (Sigma, USA) and the test compounds (600 μM) per well of a 24-well plate. Conventional indirect immunofluorescence staining of early antigen (EA) with high-titre EA-positive serum (EA titre 1 : 1,280) obtained from nasopharyngeal carcinoma (NPC) patients (1 : 20 serum dilution) followed by a 1 : 30 dilution of fluorescein-isothiocyanate-(FITC-)labeled IgG (Sigma, USA) was used to measure EBV activation. The ratio of EA-induced cells to the control experiments only with sodium n-butyrate and PMA was around 50%. The test compounds showing antitumour-promoting activity were serially diluted (2-fold) to determine the IC50 values.

[3] = test system: CEM-SS (human T-lymphoblastic leukemia) cells; assay: MTT cytotoxicity assay; format: cell-based; settings: 72 h
Method: The CEM-SS (human T-lymphoblastic leukemia) cell line was obtained from the National Cancer Institute, USA, and the Raji (human B-lymphoblastoid) cell line was provided by Prof. K. Koshimizu, Kinki University, Japan. Cells were cultured in RPMI-1640 (Sigma, USA) medium with 10% v/v foetal calf serum (Sera Lab, UK), 100 IU/mL penicillin (Sigma, USA) and 100 μg/mL streptomycin (Sigma, USA) as a complete growth medium (CGM). Cells were maintained in 25 cm^2 flask with 10 mL of CGM at 37°C with 5% CO2. Every three days the cells were subcultured by splitting the culture with fresh CGM at a ratio of 1 : 4 [10].
Cytotoxicity was determined using the MTT assay as reported by Ali et al.. Varying concentrations of the test compounds were prepared from the stock solutions by serial dilution in RPMI-1640 to give a volume of 100 μL in each well of a microtiter plate (96-well) as described before. Each well was filled with 100 μl of CEM-SS cell suspension in CGM at 1-2 × 10^5 cells/mL. Controls that contained only CEM-SS cells were included for each sample. The assay for each concentration of extract was performed in triplicate and the culture plates were kept at 37°C with 5% (v/v) CO2 for three days. After 72 h of incubation, 100 μL of medium was removed from each well. […] Absorbance values at 550 nm were measured with a microplate reader (Bio Tek EL 340, USA) after background subtraction at 630 nm. […]

[4] = test system: Brine shrimp (Artemia saline Leach); assay: Brine shrimp lethality/toxicity assay; format: in vivo; settings: brine shrimp nauplii, preliminary test concentration 300 μM
Method: Brine shrimp (Artemia saline Leach) eggs (Gold Eagle, USA) were placed in a hatching tank containing sea water for 48 h. Each compound (6 μmol) was dissolved in 0.2 mL methylene chloride:methanol (1 : 1) to prepare a stock solution of 30 mM. From the stock solutions, 50 μL was transferred to different vials and allowed to evaporate. After evaporation, 5 mL of brine was added to each vial in triplicate to prepare a preliminary test concentration corresponding to 300 μM. Ten shrimp nauplii were added to each vial (30 shrimps per concentration). The number of survivors out of 30 shrimps per concentration was recorded.

[5] = DPPH radical scavenging method; settings: 0.3 mM, 30 min
Method: The methanol solution of 2,2-diphenyl-1-picrylhydrazyl hydrate (DPPH) (Aldrich Chem. Co., USA) radicals (1 mL, 0.3 mM) was added to each sample (1 mM, 0.5 mL) and was shaken vigorously. The absorbance of each sample was measured at 517 nm after allowing it to stand for 30 min. Each sample (final concentration, 0.3 mM) was assayed in triplicate and averaged. Standard antioxidants, that is, butylated hydroxytoluene (BHT) and ascorbic acid, were used as positive controls.

SMILES | IC50 [1] [µM] | IC50 [2] [µM] | fold higher antitumour-promoting activity than compound 2 ([2]; ratio of EBV-EA IC50 values) [fold] | CD50 [3] [µM] | LC50 [4] [µM] | Radical scavenging (%), DPPH assay [5] [%]
O=c1c(-c2ccc(O)cc2)coc2cc(O)cc(O)c12 [genistein] | ~20 |  |  |  |  | 
CCCCOC(=O)CC1(O)C(=O)OC1C(=O)OCCCC (stereo not shown) [Compound 1, 2-(butoxycarbonylmethyl)-3-butoxycarbonyl-2-hydroxy-3-propanolide] |  | 70 | 8 | > 100 | > 300 | 3.4
CCCCOC(=O)CC(O)(C(=O)OC)C(O)C(=O)OCCCC (stereo not shown) [Compound 2, 1′,1′′-dibutyl methyl hydroxycitrate] |  | 560 |  | > 100 | > 300 | 5.5
